The text below walks through data of paper PMC2009897, “Comparison of mutagenesis and malignant transformation by dihydrodiols from benz[a]anthracene and 7,12-dimethylbenz[a]anthracene” (British Journal of Cancer, 1979).

Series [1] deals with V79 Chinese hamster cells. Nature of the series: Cytotoxicity (plating efficiency) in V79 Chinese hamster cells. In kind it is cell-based.
Series [2] has as its system M2 mouse fibroblasts. As to the kind of experiment: Plating efficiency of M2 mouse fibroblasts. In kind it is cell-based.
In a further series the test system is V79 cells. Details: method as in Slaga et al., 1978. Conditions: presence of mono-oxygenase systems; ref Slaga et al., 1978; cited from earlier work.
The test system of series [3] is Salmonella typhimurium TA100. Conditions: cited from earlier work; for Mutagenic activity in Salmonella typhimurium TA100: presence of mono-oxygenase systems, ref Wood et al., 1976; for Microsome-mediated mutagenic activity in S. typhimurium TA100: ref Malaveille et al., 1978.
For the next series, the system named is newborn mice. Details: method as in Wislocki et al., 1976. Conditions: ref Wislocki et al., 1976; cited from earlier work.
A further series deals with mouse skin. Conditions: cited from earlier work.
Series [4] deals with M2 mouse fibroblasts.
Another series concerns C3H/HeJ mice. Conditions: 106 cells from 2 clones transformed by the compound, 3 mice/clone (6 mice), five weeks after injection.
Series [5] concerns M2 mouse fibroblasts. Conditions: cited from earlier work.
The test system of series [6] is V79 Chinese hamster cells. Conditions: ref Wood et al. (1977a); cited from earlier work.
The test system of series [7] is V79 Chinese hamster cells.

Values joined by “and” are separate entries in the source; they are usually repeats but may differ in a detail not shown here. Equal values may be shown once. Read-outs that look alike come from different tables or passages of the source.

Take `O[C@@H]1C=Cc2ccc3cc4ccccc4cc3c2[C@H]1O` (relative stereo) [trans-1,2-Dihydro-1,2-dihydroxy BA, trans-1,2-Dihydro-1,2-dihydroxy-BA]: the “Plating efficiency (%) in V79 cells” value in series [1] (1.2 µg/ml, 3 h, Table I) is reported as 99%; in series [1] (2.5 µg/ml, 3 h, Table I), 95%; in series [1] (5.0 µg/ml, 3 h, Table I) it was 89%; in series [1] (10.0 µg/ml, 3 h, Table I), 55%. Further, the “Plating efficiency (%) in M2 cells” value with M2 mouse fibroblasts [2] (1.2 µg/ml, 24 h, Table I) worked out at 44%; in the series with M2 mouse fibroblasts [2] (2.5 µg/ml, 24 h, Table I), 40%; with M2 mouse fibroblasts [2] (5.0 µg/ml, 24 h, Table I), 37%; with M2 mouse fibroblasts [2] (10.0 µg/ml, 24 h, Table I), 10%. For the same molecule, the “Mutagenic activity in V79 cells” value with V79 cells is reported as “not found to be active”. In series [3], the “Mutagenic activity in Salmonella typhimurium TA100” value is “not found to be active”.
On to `O[C@@H]1C=Cc2c(ccc3cc4ccccc4cc23)[C@H]1O` (relative stereo) [trans-3,4-Dihydro-3,4-dihydroxy BA, trans-3,4-dihydro-3,4-dihydroxy-BA], for which the “Plating efficiency (%) in V79 cells” value in series [1] (2.5 µg/ml, 3 h, Table I) is 93%; in series [1] (5.0 µg/ml, 3 h, Table I), 84%; in [1] (10.0 µg/ml, 3 h, Table I), 56%. The “Plating efficiency (%) in M2 cells” value with M2 mouse fibroblasts [2] (2.5 µg/ml, 24 h, Table I) turned out to be 50%; in the series on M2 mouse fibroblasts [2] (5.0 µg/ml, 24 h, Table I) it was 38%; with M2 mouse fibroblasts [2] (10.0 µg/ml, 24 h, Table I), 12%. Further, the “Mutagenic activity in V79 cells” value with V79 cells is “active”. Further, the “Inducer of tumours in newborn mice” value in the series on newborn mice is recorded as “highly active”. The “Mutagenic activity in Salmonella typhimurium TA100” value in [3] is reported as “active”. In the series with mouse skin (ref Wood et al., 1977b, Slaga et al., 1978), the “Initiator of tumours on mouse skin” value is reported as “highly active”.
For `Cc1c2ccccc2c(C)c2c3c(ccc12)[C@@H](O)[C@H](O)C=C3` (relative stereo) [trans-3,4-Dihydro-3,4-dihydroxy-DMBA, trans-3,4-dihydro-3,4-dihydroxy-DMBA], the “Plating efficiency (%) in V79 cells” value stood at 67% in series [1] (0.12 µg/ml, 3 h, Table I); 58% in series [1] (0.25 µg/ml, 3 h, Table I); 50% in series [1] (0.5 µg/ml, 3 h, Table I); 43% in [1] (1.0 µg/ml, 3 h, Table I). Further, the “Plating efficiency (%) in M2 cells” value in the series on M2 mouse fibroblasts [2] (0.12 µg/ml, 24 h, Table I) was 31%; in the series on M2 mouse fibroblasts [2] (0.25 µg/ml, 24 h, Table I), 26%; in the series with M2 mouse fibroblasts [2] (0.5 µg/ml, 24 h, Table I), 25%; in the series on M2 mouse fibroblasts [2] (1.0 µg/ml, 24 h, Table I) it was 15%. The “Induction of malignant transformation in M2 mouse fibroblasts (result in words)” value (“Induction of malignant transformation” below) in the series with M2 mouse fibroblasts [4] was “induced mutations in V79 cells and malignant transformation in M2 mouse fibroblasts”. Further, in the series with M2 mouse fibroblasts [4], the “Malignant transformation in M2 cells compared with the parent hydrocarbon” value is given as “more active than the parent hydrocarbon”. In addition, the “Animals that developed malignant fibrosarcomas” value in the series on C3H/HeJ mice worked out at 6 animals. For the same molecule, the “Microsome-mediated mutagenic activity in S. typhimurium TA100” value in series [3] is recorded as “high”. Besides, the “Initiator of tumours on mouse skin” value in the series on mouse skin (ref I. Chouroulinkov, personal communication) is on record as “acts as an initiator of tumours on mouse skin”.
As to `O[C@@H]1c2ccccc2-c2cc3ccccc3cc2[C@H]1O` (relative stereo) [trans-5,6-Dihydro-5,6-dihydroxy BA, trans-5,6-Dihydro-5,6-dihydroxy-BA], the “Plating efficiency (%) in V79 cells” value in [1] (2.5 µg/ml, 3 h, Table I) stood at 85%; in series [1] (5.0 µg/ml, 3 h, Table I), 74%; in series [1] (10.0 µg/ml, 3 h, Table I), 59%. In addition, the “Plating efficiency (%) in M2 cells” value was determined as 44% in the series on M2 mouse fibroblasts [2] (2.5 µg/ml, 24 h, Table I); 42% with M2 mouse fibroblasts [2] (5.0 µg/ml, 24 h, Table I); 40% with M2 mouse fibroblasts [2] (10.0 µg/ml, 24 h, Table I).
With `Cc1c2c(c(C)c3ccccc13)[C@@H](O)[C@H](O)c1ccccc1-2` (relative stereo) [trans-5,6-Dihydro-5,6-dihydroxy-DMBA, trans-5,6-dihydro-5,6-dihydroxy-DMBA], the “Plating efficiency (%) in V79 cells” value is 80% in series [1] (1.0 µg/ml, 3 h, Table I); 73% in series [1] (5.0 µg/ml, 3 h, Table I); 57% in [1] (10.0 µg/ml, 3 h, Table I). Further, the “Plating efficiency (%) in M2 cells” value in the series on M2 mouse fibroblasts [2] (1.0 µg/ml, 24 h, Table I) is recorded as 28%; in the series on M2 mouse fibroblasts [2] (5.0 µg/ml, 24 h, Table I) it was 28%; in the series with M2 mouse fibroblasts [2] (10.0 µg/ml, 24 h, Table I), 20%. The “Induction of malignant transformation” value in the series on M2 mouse fibroblasts [4] was “inactive in both test systems”. Also, in the series on M2 mouse fibroblasts [4], the “Transformed foci/103 survivors” value came out at 0. Besides, the Transformed foci/dishes treated in the series with M2 mouse fibroblasts [4] is 0/10.
Regarding `O[C@@H]1C=Cc2cc3c(ccc4ccccc43)cc2[C@H]1O` (relative stereo) [trans-8,9-Dihydro-8,9-dihydroxy-BA, trans-8,9-dihydro-8,9-dihydroxy-BA], the “Plating efficiency (%) in V79 cells” value in [1] (2.5 µg/ml, 3 h, Table I) amounted to 57%; in series [1] (5.0 µg/ml, 3 h, Table I) it was 54%; in series [1] (10.0 µg/ml, 3 h, Table I) it was 53%. For the same molecule, the “Plating efficiency (%) in M2 cells” value in the series with M2 mouse fibroblasts [2] (2.5 µg/ml, 24 h, Table I) worked out at 44%; in the series on M2 mouse fibroblasts [2] (5.0 µg/ml, 24 h, Table I), 39%; in the series with M2 mouse fibroblasts [2] (10.0 µg/ml, 24 h, Table I), 30%.
On to `Cc1c2c(c(C)c3c1ccc1ccccc13)C=C[C@@H](O)[C@@H]2O` (relative stereo) [trans-8,9-Dihydro-8,9-dihydroxy-DMBA, trans-8,9-dihydro-8,9-dihydroxy-DMBA], for which the “Plating efficiency (%) in V79 cells” value in [1] (0.25 µg/ml, 3 h, Table I) amounted to 62%; in [1] (0.5 µg/ml, 3 h, Table I) it was 45%; in series [1] (1.0 µg/ml, 3 h, Table I) it was 32%. Moreover, the “Plating efficiency (%) in M2 cells” value in the series with M2 mouse fibroblasts [2] (0.25 µg/ml, 24 h, Table I) amounted to 26%; in the series with M2 mouse fibroblasts [2] (0.5 µg/ml, 24 h, Table I), 22%; with M2 mouse fibroblasts [2] (1.0 µg/ml, 24 h, Table I) it was 7%. Also, the “Induction of malignant transformation” value with M2 mouse fibroblasts [4] is “induced mutations in V79 cells and malignant transformation in M2 mouse fibroblasts”. Further, the “Malignant transformation in M2 cells compared with the parent hydrocarbon” value in the series on M2 mouse fibroblasts [4] is on record as “more active than the parent hydrocarbon”. For the same molecule, in the series on M2 mouse fibroblasts [5], the “Activity in M2 cells (malignant transformation), earlier observations” value was “active”. Further, in series [3], the “Microsome-mediated mutagenic activity in S. typhimurium TA100” value was “some mutagenic activity”.
Regarding `O[C@@H]1C=Cc2cc3ccc4ccccc4c3cc2[C@H]1O` (relative stereo) [trans-10,11-Dihydro-10,11-dihydroxy-BA, trans-10,11-dihydro-10,11-dihydroxy-BA], the “Plating efficiency (%) in M2 cells” value in the series with M2 mouse fibroblasts [2] (2.5 µg/ml, 24 h, Table I) was 44%; in the series with M2 mouse fibroblasts [2] (5.0 µg/ml, 24 h, Table I) it was 37%; with M2 mouse fibroblasts [2] (10.0 µg/ml, 24 h, Table I), 29%.
For the molecule `Cc1c2c(c(C)c3c1ccc1ccccc13)[C@@H](O)[C@H](O)C=C2` (relative stereo) [trans-10,11-Dihydro-10,11-dihydroxy-DMBA, trans-10,11-dihydro-10,11-dihydroxy-DMBA], the “Plating efficiency (%) in V79 cells” value in series [1] (0.25 µg/ml, 3 h, Table I) is given as 76%; in series [1] (0.5 µg/ml, 3 h, Table I), 68%; in series [1] (1.0 µg/ml, 3 h, Table I) it was 44%. Also, the “Plating efficiency (%) in M2 cells” value is listed as 30% with M2 mouse fibroblasts [2] (0.25 µg/ml, 24 h, Table I); 26% in the series with M2 mouse fibroblasts [2] (0.5 µg/ml, 24 h, Table I); 11% in the series on M2 mouse fibroblasts [2] (1.0 µg/ml, 24 h, Table I). Besides, the “Induction of malignant transformation” value in the series with M2 mouse fibroblasts [4] is “inactive in both test systems”. In addition, in the series on M2 mouse fibroblasts [4], the “Transformed foci/103 survivors” value worked out at 0.
On to `OC1c2cc3ccc4ccccc4c3cc2C2OC2C1O` (single isomer, unassigned) [anti-isomer, benz[a]anthracene 8,9-diol 10,11-oxide], for which the “Plating efficiency (%) in V79 cells” value in series [1] (0.6 µg/ml, 3 h, Table II) worked out at 57%; in [1] (1.2 µg/ml, 3 h, Table II), 48%; in [1] (2.5 µg/ml, 3 h, Table II), 41%; in series [1] (5.0 µg/ml, 3 h, Table II), 35%. In addition, the “Plating efficiency (%) in M2 cells” value in the series on M2 mouse fibroblasts [2] (1.2 µg/ml, 24 h, Table II) came out at 26%; with M2 mouse fibroblasts [2] (2.5 µg/ml, 24 h, Table II), 12%; in the series with M2 mouse fibroblasts [2] (5.0 µg/ml, 24 h, Table II) it was 6%. In series [6], the “Induction of mutations in V79 cells, anti versus syn isomer” value is listed as “more active than the syn”.
In the case of `OC1c2cc3ccc4ccccc4c3cc2C2OC2C1O` (single isomer, unassigned) [syn-isomer, benz[a]anthracene 8,9-diol 10,11-oxide], the “Plating efficiency (%) in V79 cells” value stood at 56% in [1] (0.6 µg/ml, 3 h, Table II); 50% in series [1] (1.2 µg/ml, 3 h, Table II); 49% in [1] (2.5 µg/ml, 3 h, Table II); 48% in [1] (5.0 µg/ml, 3 h, Table II). Besides, the “Plating efficiency (%) in M2 cells” value in the series on M2 mouse fibroblasts [2] (1.2 µg/ml, 24 h, Table II) is reported as 47%; in the series with M2 mouse fibroblasts [2] (2.5 µg/ml, 24 h, Table II) it was 49%; in the series with M2 mouse fibroblasts [2] (5.0 µg/ml, 24 h, Table II), 30%. Besides, the “Induction of mutations to 8-azaguanine resistance in V79 cells (result in words)” value (“Induction of mutations … (result in words)” below) in [7] is “mutagenic”. The “Induction of malignant transformation” value in the series with M2 mouse fibroblasts [4] is “inactive”.
On to `c1ccc2cc3c(ccc4ccccc43)cc2c1` [BA, benz[a]anthracene], for which the “Plating efficiency (%) in V79 cells” value in [1] is 82% and 70%. Moreover, in the series with M2 mouse fibroblasts [2], the “Plating efficiency (%) in M2 cells” value is 32% and 29%. Moreover, the “Induction of mutations … (result in words)” value in series [7] was “inactive”.
In the case of `Cc1c2ccccc2c(C)c2c1ccc1ccccc12` [DMBA, 7,12-dimethylbenz[a]anthracene], the “Plating efficiency (%) in V79 cells” value in series [1] was 63% and 39%. The “Plating efficiency (%) in M2 cells” value with M2 mouse fibroblasts [2] is 26% and 24%. Further, in series [7], the “Induction of mutations … (result in words)” value was “inactive”. The “Induction of malignant transformation” value in the series with M2 mouse fibroblasts [4] is recorded as “some activity”.
